Measured values: ChEMBL document CHEMBL1201861, “Genomics of Drug Sensitity in Cancer screening data, Wellcome Trust Sanger Institute”
pIC50: −log10 of the molar value.

How the values were obtained:
Test in all cases: cells
CW-2 = format: functional, cell-based, Homo sapiens; details: Homo sapiens, CW-2;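 note: growth inhibition of CW-2 cells, read out by a cell viability assay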
Description: SANGER: Inhibition of human CW-2 cell growth in a cell viability assay.

Calu-6 = format: functional, cell-based, Homo sapiens; details: Homo sapiens, Calu-6;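 note: growth of human Calu-6 cells, read out by a cell viability assay, IC50 marking inhibition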
Description: SANGER: Inhibition of human Calu-6 cell growth in a cell viability assay.

D-263MG = format: functional, cell-based, Homo sapiens; details: Homo sapiens, D-263MG
Description: SANGER: Inhibition of human D-263MG cell growth in a cell viability assay.

DB = format: functional, cell-based, Homo sapiens; details: Homo sapiens, DB
Description: SANGER: Inhibition of human DB cell growth in a cell viability assay.

DEL = format: functional, cell-based, Homo sapiens; details: Homo sapiens, DEL;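 note: growth inhibition of the human DEL cell line, read out with a cell viability assay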
Description: SANGER: Inhibition of human DEL cell growth in a cell viability assay.

GI-1 = format: functional, cell-based, Homo sapiens; details: Homo sapiens, GI-1;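 note: growth inhibition of human GI-1 cells, measured with a cell viability readout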
Description: SANGER: Inhibition of human GI-1 cell growth in a cell viability assay.

GT3TKB = format: functional, cell-based, Homo sapiens; details: Homo sapiens, GT3TKB;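 note: growth inhibition of the cell line, read out with a cell viability assay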
Description: SANGER: Inhibition of human GT3TKB cell growth in a cell viability assay.

HCE-T = format: functional, cell-based, Homo sapiens; details: Homo sapiens, HCE-T;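 note: cell viability assay read-out, reporting inhibition of HCE-T cell growth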
Description: SANGER: Inhibition of human HCE-T cell growth in a cell viability assay.

HT = format: functional, cell-based, Homo sapiens; details: Homo sapiens, HT
Description: SANGER: Inhibition of human HT cell growth in a cell viability assay.

HuTu80 = format: functional, cell-based, Homo sapiens, HUTU-80; details: Homo sapiens, HuTu80;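 note: growth inhibition of HuTu80 human cells, determined with a cell viability readout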
Description: SANGER: Inhibition of human HUTU-80 cell growth in a cell viability assay.

JAR = format: functional, cell-based, Homo sapiens; details: Homo sapiens, JAR;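 note: growth inhibition of human JAR cells determined with a cell viability assay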
Description: SANGER: Inhibition of human JAR cell growth in a cell viability assay.

JVM-2 = format: functional, cell-based, Homo sapiens; details: Homo sapiens, JVM-2;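 note: growth inhibition of JVM-2 cells determined by a cell viability assay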
Description: SANGER: Inhibition of human JVM-2 cell growth in a cell viability assay.

KE-37 = format: functional, cell-based, Homo sapiens; details: Homo sapiens, KE-37;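 note: growth inhibition of KE-37 cells, read out with a cell viability assay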
Description: SANGER: Inhibition of human KE-37 cell growth in a cell viability assay.

KG-1 = format: functional, cell-based, Homo sapiens; details: Homo sapiens, KG-1;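 note: growth inhibition of KG-1 cells, read out by a cell viability assay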
Description: SANGER: Inhibition of human KG-1 cell growth in a cell viability assay.

KP-N-YS = format: functional, cell-based, Homo sapiens; details: Homo sapiens, KP-N-YS;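 note: cell viability assay measuring inhibition of cell line growth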
Description: SANGER: Inhibition of human KP-N-YS cell growth in a cell viability assay.

KU812 cell line = format: functional, cell-based, Homo sapiens; details: Homo sapiens, KU812;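 note: growth inhibition of KU812 cells, read out with a cell viability assay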
Description: SANGER: Inhibition of human KU812 cell growth in a cell viability assay.

KURAMOCHI = format: functional, cell-based, Homo sapiens; details: Homo sapiens, KURAMOCHI;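 note: growth inhibition of KURAMOCHI cells, read out with a cell viability assay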
Description: SANGER: Inhibition of human KURAMOCHI cell growth in a cell viability assay.

L-428 = format: functional, cell-based, Homo sapiens; details: Homo sapiens, L-428
Description: SANGER: Inhibition of human L-428 cell growth in a cell viability assay.

LB2518-MEL = format: functional, cell-based, Homo sapiens; details: Homo sapiens, LB2518-MEL;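 note: growth inhibition of human LB2518-MEL cells, measured with a cell viability assay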
Description: SANGER: Inhibition of human LB2518-MEL cell growth in a cell viability assay.

LC-2-ad = format: functional, cell-based, Homo sapiens; details: Homo sapiens, LC-2-ad;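 note: growth inhibition of human LC-2-ad cells, read out with a cell viability assay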
Description: SANGER: Inhibition of human LC-2-ad cell growth in a cell viability assay.

LNCaP-Clone-FGC = format: functional, cell-based, Homo sapiens; details: Homo sapiens, LNCaP-Clone-FGC
Description: SANGER: Inhibition of human LNCaP-Clone-FGC cell growth in a cell viability assay.

LS-513 = format: functional, cell-based, Homo sapiens; details: Homo sapiens, LS-513
Description: SANGER: Inhibition of human LS-513 cell growth in a cell viability assay.

LU-134-A = format: functional, cell-based, Homo sapiens; details: Homo sapiens, LU-134-A
Description: SANGER: Inhibition of human LU-134-A cell growth in a cell viability assay.

Lu-65 = format: functional, cell-based, Homo sapiens; details: Homo sapiens, Lu-65;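 note: growth inhibition of Lu-65 cancer cells, read out by a cell viability assay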
Description: SANGER: Inhibition of human LU-65 cell growth in a cell viability assay.

MC116 = format: functional, cell-based, Homo sapiens; details: Homo sapiens, MC116;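 note: growth inhibition of MC116 cells, read out with a cell viability assay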
Description: SANGER: Inhibition of human MC116 cell growth in a cell viability assay.

MHH-PREB-1 = format: functional, cell-based, Homo sapiens; details: Homo sapiens, MHH-PREB-1;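 note: cell viability assay measuring inhibition of proliferation of human MHH-PREB-1 cells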
Description: SANGER: Inhibition of human MHH-PREB-1 cell growth in a cell viability assay.

MLMA = format: functional, cell-based, Homo sapiens; details: Homo sapiens, MLMA;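 note: growth inhibition of MLMA cells (human), determined through a cell viability readout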
Description: SANGER: Inhibition of human MLMA cell growth in a cell viability assay.

MMAC-SF = format: functional, cell-based, Homo sapiens; details: Homo sapiens, MMAC-SF;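 note: growth inhibition of human MMAC-SF cells, read out with a cell viability assay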
Description: SANGER: Inhibition of human MMAC-SF cell growth in a cell viability assay.

MZ2-MEL = format: functional, cell-based, Homo sapiens; details: Homo sapiens, MZ2-MEL;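 note: growth inhibition of MZ2-MEL cells read out with a cell viability assay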
Description: SANGER: Inhibition of human MZ2-MEL cell growth in a cell viability assay.

MZ7-mel = format: functional, cell-based, Homo sapiens; details: Homo sapiens, MZ7-mel;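 note: growth inhibition of human MZ7-mel cells, measured by a cell viability assay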
Description: SANGER: Inhibition of human MZ7-mel cell growth in a cell viability assay.

NB5 = format: functional, cell-based, Homo sapiens; details: Homo sapiens, NB5;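 note: growth inhibition of NB5 cells, read out as cell viability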
Description: SANGER: Inhibition of human NB5 cell growth in a cell viability assay.

NB69 = format: functional, cell-based, Homo sapiens; details: Homo sapiens, NB69;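 note: growth inhibition of NB69 cells, determined by a cell viability assay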
Description: SANGER: Inhibition of human NB69 cell growth in a cell viability assay.

NCI-H446 = format: functional, cell-based, Homo sapiens; details: Homo sapiens, NCI-H446;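 note: growth inhibition of NCI-H446 cells determined by a cell viability assay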
Description: SANGER: Inhibition of human NCI-H446 cell growth in a cell viability assay.

NKM-1 = format: functional, cell-based, Homo sapiens; details: Homo sapiens, NKM-1;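 note: growth inhibition of NKM-1 cells, read out with a cell viability assay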
Description: SANGER: Inhibition of human NKM-1 cell growth in a cell viability assay.

OMC-1 = format: functional, cell-based, Homo sapiens; details: Homo sapiens, OMC-1;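 note: growth inhibition of the OMC-1 cell line, measured by a cell viability assay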
Description: SANGER: Inhibition of human OMC-1 cell growth in a cell viability assay.

ONS-76 = format: functional, cell-based, Homo sapiens; details: Homo sapiens, ONS-76;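 note: growth inhibition of human ONS-76 cells, read out with a cell viability assay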
Description: SANGER: Inhibition of human ONS-76 cell growth in a cell viability assay.

RCC10RGB = format: functional, cell-based, Homo sapiens; details: Homo sapiens, RCC10RGB;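 note: growth inhibition of human RCC10RGB cells, read out by a cell viability assay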
Description: SANGER: Inhibition of human RCC10RGB cell growth in a cell viability assay.

SF-539 = format: functional, cell-based, Homo sapiens; details: Homo sapiens, SF-539;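 note: Read-out is a cell viability assay, with IC50 reflecting inhibition of cell growth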
Description: SANGER: Inhibition of human SF539 cell growth in a cell viability assay.

SK-UT-1 = format: functional, cell-based, Homo sapiens; details: Homo sapiens, SK-UT-1;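 note: growth inhibition of SK-UT-1 cells, measured by a cell viability assay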
Description: SANGER: Inhibition of human SK-UT-1 cell growth in a cell viability assay.

SNB-75 = format: functional, cell-based, Homo sapiens; details: Homo sapiens, SNB-75;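 note: cell viability assay measuring growth inhibition of human SNB-75 cells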
Description: SANGER: Inhibition of human SNB75 cell growth in a cell viability assay.

SW872 = format: functional, cell-based, Homo sapiens; details: Homo sapiens, SW872;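 note: growth inhibition of SW872 cells, read out by a viability assay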
Description: SANGER: Inhibition of human SW872 cell growth in a cell viability assay.

TE-1 = format: functional, cell-based, Homo sapiens; details: Homo sapiens, TE-1;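 note: growth inhibition of the human TE-1 cell line, read out with a cell viability assay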
Description: SANGER: Inhibition of human TE-1 cell growth in a cell viability assay.

697 = format: functional, cell-based, Homo sapiens; details: Homo sapiens
Description: SANGER: Inhibition of human 697 cell growth in a cell viability assay.

A101D = format: functional, cell-based, Homo sapiens; details: Homo sapiens, A101D;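 note: growth inhibition of the cell line, measured with a viability assay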
Description: SANGER: Inhibition of human A101D cell growth in a cell viability assay.

A253 cell line = format: functional, cell-based, Homo sapiens; details: Homo sapiens, A253;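 note: growth inhibition of A253 cells, read out with a cell viability assay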
Description: SANGER: Inhibition of human A253 cell growth in a cell viability assay.

ACN = format: functional, cell-based, Homo sapiens; details: Homo sapiens, ACN;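 note: growth inhibition of the human ACN cell line, read out via cell viability testing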
Description: SANGER: Inhibition of human ACN cell growth in a cell viability assay.

C8166 = format: functional, cell-based, Homo sapiens; details: Homo sapiens, C8166;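 note: growth inhibition of human C8166 cells measured by a cell viability assay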
Description: SANGER: Inhibition of human C8166 cell growth in a cell viability assay.

TE-8 = format: functional, cell-based, Homo sapiens; details: Homo sapiens, TE-8;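 note: growth inhibition of TE-8 cells, measured with a cell viability readout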
Description: SANGER: Inhibition of human TE-8 cell growth in a cell viability assay.

COLO-668 = format: functional, cell-based, Homo sapiens; details: Homo sapiens, COLO-668
Description: SANGER: Inhibition of human COLO-668 cell growth in a cell viability assay.

NB12 = format: functional, cell-based, Homo sapiens; details: Homo sapiens, NB12;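 note: growth inhibition of human NB12 cells, read out by a cell viability assay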
Description: SANGER: Inhibition of human NB12 cell growth in a cell viability assay.

N[C@@H](CSC(c1ccccc1)(c1ccccc1)c1ccccc1)C(=O)O [S-TRITYL-L-CYSTEINE]
pIC50 (CW-2): < 5.29
pIC50 (Calu-6): 6.37
pIC50 (D-263MG): < 5.29
pIC50 (DB): < 5.29
pIC50 (DEL): 5.85
pIC50 (GI-1): < 5.29
pIC50 (GT3TKB): 6.55
pIC50 (HCE-T): 5.55
pIC50 (HT): 5.57
pIC50 (HuTu80): 6.26
pIC50 (JAR): 6.03
pIC50 (JVM-2): < 5.29
pIC50 (KE-37): 6.37
pIC50 (KG-1): < 5.29
pIC50 (KP-N-YS): < 5.29
pIC50 (KU812 cell line): < 5.29
pIC50 (KURAMOCHI): < 5.29
pIC50 (L-428): 5.49
pIC50 (LB2518-MEL): 5.43
pIC50 (LC-2-ad): 6.27
pIC50 (LNCaP-Clone-FGC): < 5.29
pIC50 (LS-513): < 5.29
pIC50 (LU-134-A): 5.36
pIC50 (Lu-65): < 5.29
pIC50 (MC116): 6.15
pIC50 (MHH-PREB-1): < 5.29
pIC50 (MLMA): 5.34
pIC50 (MMAC-SF): 5.57
pIC50 (MZ2-MEL): < 5.29
pIC50 (MZ7-mel): 5.50
pIC50 (NB5): < 5.29
pIC50 (NB69): 5.75
pIC50 (NCI-H446): 5.59
pIC50 (NKM-1): < 5.29
pIC50 (OMC-1): < 5.29
pIC50 (ONS-76): < 5.29
pIC50 (RCC10RGB): < 5.29
pIC50 (SF-539): 5.69
pIC50 (SK-UT-1): 6.20
pIC50 (SNB-75): 5.56
pIC50 (SW872): 6.10
pIC50 (TE-1): 5.44
pIC50 697: 6.48
pIC50 (A101D): 5.76
pIC50 (A253 cell line): 5.43
pIC50 (ACN): 5.83
pIC50 (C8166): < 5.29
pIC50 (TE-8): 6.14
pIC50 (COLO-668): < 5.29

CCN(CC)CCNC(=O)c1c(C)[nH]c(/C=C2\C(=O)Nc3ccc(F)cc32)c1C [SUNITINIB]
pIC50 (CW-2): < 5.10
pIC50 (Calu-6): < 5.10
pIC50 (D-263MG): < 5.10
pIC50 (DB): < 5.10
pIC50 (DEL): 5.68
pIC50 (GI-1): < 5.10
pIC50 (GT3TKB): 5.18
pIC50 (HCE-T): < 5.10
pIC50 (HT): < 5.10
pIC50 (HuTu80): < 5.10
pIC50 (JAR): 5.40
pIC50 (JVM-2): < 5.10
pIC50 (KE-37): 5.39
pIC50 (KG-1): 5.22
pIC50 (KP-N-YS): < 5.10
pIC50 (KU812 cell line): 5.17
pIC50 (KURAMOCHI): < 5.10
pIC50 (L-428): < 5.10
pIC50 (LB2518-MEL): < 5.10
pIC50 (LC-2-ad): 5.95
pIC50 (LNCaP-Clone-FGC): < 5.10
pIC50 (LS-513): < 5.10
pIC50 (LU-134-A): < 5.10
pIC50 (Lu-65): < 5.10
pIC50 (MC116): 5.35
pIC50 (MHH-PREB-1): 5.27
pIC50 (MLMA): < 5.10
pIC50 (MMAC-SF): 5.21
pIC50 (MZ2-MEL): < 5.10
pIC50 (MZ7-mel): < 5.10
pIC50 (NB5): < 5.10
pIC50 (NB69): < 5.10
pIC50 (NCI-H446): < 5.10
pIC50 (NKM-1): 7.01
pIC50 (OMC-1): < 5.10
pIC50 (ONS-76): < 5.10
pIC50 (RCC10RGB): < 5.10
pIC50 (SF-539): < 5.10
pIC50 (SK-UT-1): < 5.10
pIC50 (SNB-75): < 5.10
pIC50 (SW872): < 5.10
pIC50 (TE-1): < 5.10
pIC50 697: 6.21
pIC50 (A101D): 5.56
pIC50 (A253 cell line): < 5.10
pIC50 (ACN): < 5.10
pIC50 (C8166): < 5.10
pIC50 (TE-8): 5.63
pIC50 (COLO-668): < 5.10

CS(=O)(=O)c1ccc(C(=O)Nc2ccc(Cl)c(-c3ccccn3)c2)c(Cl)c1 [VISMODEGIB]
pIC50 (CW-2): < 5.00
pIC50 (Calu-6): < 5.00
pIC50 (D-263MG): < 5.00
pIC50 (DB): < 5.00
pIC50 (DEL): < 5.00
pIC50 (GI-1): < 5.00
pIC50 (GT3TKB): < 5.00
pIC50 (HCE-T): 5.88
pIC50 (HT): < 5.00
pIC50 (HuTu80): < 5.00
pIC50 (JAR): < 5.00
pIC50 (JVM-2): < 5.00
pIC50 (KE-37): < 5.00
pIC50 (KG-1): < 5.00
pIC50 (KP-N-YS): < 5.00
pIC50 (KURAMOCHI): < 5.00
pIC50 (L-428): < 5.00
pIC50 (LB2518-MEL): < 5.00
pIC50 (LC-2-ad): < 5.00
pIC50 (LNCaP-Clone-FGC): < 5.00
pIC50 (LS-513): < 5.00
pIC50 (LU-134-A): < 5.00
pIC50 (Lu-65): < 5.00
pIC50 (MC116): < 5.00
pIC50 (MHH-PREB-1): < 5.00
pIC50 (MLMA): < 5.00
pIC50 (MMAC-SF): < 5.00
pIC50 (MZ2-MEL): < 5.00
pIC50 (MZ7-mel): < 5.00
pIC50 (NB12): < 5.00
pIC50 (NB5): < 5.00
pIC50 (NB69): < 5.00
pIC50 (NCI-H446): < 5.00
pIC50 (NKM-1): < 5.00
pIC50 (OMC-1): < 5.00
pIC50 (ONS-76): < 5.00
pIC50 (RCC10RGB): < 5.00
pIC50 (SF-539): < 5.00
pIC50 (SK-UT-1): < 5.00
pIC50 (SNB-75): < 5.00
pIC50 (SW872): < 5.00
pIC50 (TE-1): < 5.00
pIC50 697: < 5.00
pIC50 (A101D): < 5.00
pIC50 (ACN): 5.07
pIC50 (C8166): < 5.00
pIC50 (TE-8): < 5.00
pIC50 (COLO-668): < 5.00
